Measured values: article PMC2810320 (Journal of the American Chemical Society, 2010)

What was measured:
[1] = biological target: T1, porcine bc1 complex (Sus scrofa, UniProt P24964); assay: Succinate-cytochrome c reductase; format: biochemical; details: for ΔG ΔGexp.: ΔGexp. = −RTlnKi
[2] = biological target: T1, porcine bc1 complex; assay: Ubiquinol-cytochrome c reductase; format: biochemical
[3] = DBH2 and cytochrome c as substrates, pH 6.5, 750 µM lauryl maltoside

T1 sequence (P24964 whole entry, one chain of several): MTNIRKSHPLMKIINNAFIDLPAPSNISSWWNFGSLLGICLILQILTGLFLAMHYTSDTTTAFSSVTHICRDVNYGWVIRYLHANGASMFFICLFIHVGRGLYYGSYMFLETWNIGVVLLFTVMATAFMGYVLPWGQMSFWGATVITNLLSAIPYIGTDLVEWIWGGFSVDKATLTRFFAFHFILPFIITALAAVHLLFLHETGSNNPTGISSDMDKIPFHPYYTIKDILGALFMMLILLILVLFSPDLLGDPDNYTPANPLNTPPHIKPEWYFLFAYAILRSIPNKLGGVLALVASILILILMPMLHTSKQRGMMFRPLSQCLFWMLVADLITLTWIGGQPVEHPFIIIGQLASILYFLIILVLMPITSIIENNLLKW

Row | SMILES | ΔG ΔGexp. [1] [kcal/mol] | other results
1 | CO/C=C(/C(=O)OC)c1ccccc1Oc1cc(Oc2ccccc2C#N)ncn1 [AZ, azoxystrobin, reference compound] | -8.92 | 
2 | CO/C=C(/C(=O)OC)c1ccccc1COc1cc(-c2ccccc2O)nn1C [Compound 5a] | -12.19 | 
3 | CO/C=C(/C(=O)OC)c1ccccc1COc1cc(-c2cc(C)ccc2O)nn1C [Compound 5b] | -11.62 | 
4 | CO/C=C(/C(=O)OC)c1ccccc1COc1cc(-c2cc(Cl)ccc2O)nn1C [Compound 5c] | -12.63 | type of inhibition with respect to substrate cytochrome c ([1]; kobs independent of cytochrome c concentration, 5 nM 5c): non-competitive inhibitor; kon ([1]; pH 7.4, read-out: apparent rate constant A (association rate constant k+0)): 6.31e+06 ± 360000 M⁻¹ s⁻¹; koff ([1]; pH 7.4, read-out: apparent rate constant B (dissociation rate constant k−0)): 0.00358 s⁻¹; fold improved binding affinity compared to AZ ([1]; ratio of Ki values, vs AZ): about 522 fold; Ki [2]: 2.6 ± 0.1 nM; microscopic inhibition rate constant k+0 [2, 3]: 1.85e+06 ± 30000 M⁻¹ s⁻¹; microscopic inhibition rate constant k−0 [2, 3]: 0.0048 ± 0.00018 s⁻¹; Ki fold higher than that measured from succinate-cytochrome c reductase activity inhibition ([2]; DBH2 assay Ki vs SCR assay Ki): about 5 fold; type of inhibition with respect to substrate ubiquinol ([2]; varying DBH2 20–115 µM): competitive inhibitor
5 | CO/N=C(/C(=O)OC)c1ccccc1COc1cc(-c2ccccc2O)nn1C [Compound 5d] | -11.50 | 
6 | CO/C=C(/C(=O)OC)c1ccccc1COc1cc(-c2ccccc2OC)nn1C [Compound 6a] | -10.29 | 
7 | CO/C=C(/C(=O)OC)c1ccccc1COc1cc(-c2cc(C)ccc2OC)nn1C [Compound 6b] | -10.52 | 
8 | CO/C=C(/C(=O)OC)c1ccccc1COc1cc(-c2ccccc2OCc2ccccc2)nn1C [Compound 6c] | -10.79 | 
9 | CO/C=C(/C(=O)OC)c1ccccc1COc1cc(-c2ccccc2OC(=O)c2ccc(F)cc2)nn1C [Compound 6d] | -9.56 | 
10 | CO/N=C(/C(=O)OC)c1ccccc1COc1ccccc1C [KM, kresoxim-methyl, reference compound] | -9.28 | 
11 | COC(=O)N(OC)c1ccccc1COc1ccn(-c2ccc(Cl)cc2)n1 [PY, pyraclostrobin, reference compound] | -11.59 | 
